Patent US8263326B2, “Compounds and methods for modulating activation of NF-κB” (Signal Pharmaceuticals, LLC, priority 1998, dated 2012)
Non-standard residues stand in square brackets, D forms with d. No end group written: not given here. pS = N[C@@H](COP(=O)(O)O)C(=O)O

B1: mβ-TrCP: FLAG-tagged mouse β-TrCP, E3 family member (protein)
chain: MDPAEAVLQEKALKFMNSSEREDCNNGEPPRKIIPEKNSLRQTYNSCARLCINQETVCLTSTAMKTENCVAKAKLANGTSSMIVPKQRKLSASYEKEKELCVKYFEQWSESDQVEFVEHLISQMCHYQHGHINSYLKPMLQRDFITALPARGLDHIAENILSYLDAKSLCAAELVCKEWYRVTSDGMLWKKLIERMVRTDSLWRGLAERRGWGQYLFKNKPPDENAPPNSFYRALYPKIIQDIETIESNWRCGRHSLQRIHCRSETSKGVYCLQYDDQKIVSGLRDNTIKIWDKSTLECKRILTGHTGSVLCLQYDERVIITGSSDSTVRVWDVNAGEMLNTLIHHCEAVLHLRFNNGMMVTCSKDRSIAVWDMASPTDITLRRVLVGHRAAVNVVDFDDKYIVSASGDRTIKVWNTSTCEFVRTLNGHKRGIACLQYRDRLVVSGSSDNTIRLWDIECGACLRVLEGHEELVRCIRFDNKRIVSGAYDGKIKVWDLMAALDPRAPAGTLCLRTLVEHSGRVFRLQFDEFQIVSSSHDDTILIWDFLNDPAAHAEPPRSPSRTYTYISR
modifications: left off: small tags and cut ends
notes: FLAG-tagged mouse β-TrCP, E3 family member

Columns and labels:
[1] = system: IκBα-ubiquitin ligase (pIκBα ubiquitination); assay: In vitro ubiquitination assay of phosphorylated, NF-κB complex-associated IκBα in HeLa cell extract; type: biochemical, human; conditions: peptide at a concentration of 400 μM; Bestatin 40 μg/ml
Description: Following incubation, 1 μl of anti-p65 serum was added, and the NF-κB immune complex was immobilized to Protein A-Sepharose® and subjected to in vitro ubiquitination in HeLa cell extract as described by Alkalay et al. Ubiquitinated proteins were separated by SDS-PAGE and visualized by autoradiography.
To identify the IκBα-ubiquitin ligase recognition motif, various peptides were added at varying concentrations to the reaction mixtures in the presence of the peptidase inhibitor Bestatin (40 μg/ml). The peptides spanned the N-terminal signaling domain of the protein, and were phosphorylated at one or both serine residues (32 and 36), or were unmodified or serine-substituted. These peptides were included in the ubiquitination reaction at different concentrations and tested for inhibition of pIκBα specific ubiquitination. When conjugation of free IκBα was monitored, the translated protein was added directly to the conjugation reaction mixture.

[2] = system: pIκBα degradation; assay: Ubiquitin-dependent in vitro degradation assay with extracts from stimulated HeLa cells; type: biochemical, human; conditions: 40 μM peptide, FIG. 2
Description: FIG. 2 is an autoradiogram depicting the results of an in vitro ubiquitin-dependent degradation assay performed using extracts from stimulated HeLa cells. In each lane of the SDS-PAGE, the level of phosphorylated (upper band) and non-phosphorylated (lower band) HA-tagged IκBα polypeptide (SEQ ID NO: 12) following the degradation assay is shown. […] In lanes 2-6, ATP was included in the reaction mixture. 40 μM candidate modulating agents were added to the reactions shown in lanes 3-6: doubly phosphorylated IκBα peptide (pp21 (SEQ ID NO:9), lane 3); doubly phosphorylated IκBα peptide (pp19 (SEQ ID NO:8), lane 4); c-Fos phosphopeptide (ppFos (SEQ ID NO: 10), lane 5); and non-phosphorylated IκBα peptide (p21 (SEQ ID NO:9), lane 6).
The inhibitory pIκBα peptides were tested in a complementary ubiquitin-dependent in vitro degradation assay (Orian et al., J. Biol. Chem. 270:21707, 1995; Stancovski et al., Mol. Cell. Biol. 75:7106, 1995). Using this assay, only pIκBα derived from stimulated cells is degraded in vitro in a ubiquitin-dependent manner, whereas the non-phosphorylated IκBα from the same cell extract is not subject to degradation.

[3] = system: E-selectin expression in primary human vascular endothelial cells (HUVEC); assay: Microinjection into HUVEC, TNFα activation, E-selectin staining; type: cell-based; conditions: microinjected peptide, TNFα 3 hours
Description: (§1) HeLa cells were plated on a grid coverslips (Cellocate, Eppendorf) 18 hours before microinjection. Microinjection was performed with a 22 amino acid pIκBα peptide (pp21; Table I and SEQ ID NO:9) or a control phospho-Fos peptide (SEQ ID NO: 10) using a semi-automated apparatus (Eppendorf). Peptides were injected into the cell cytoplasm at a concentration of 5 mg/ml in 100 mM KCl, 5 mM Na2HPO4 (pH 7.2), and immediately activated with TNFα (200 units/mL) for either 20 minutes (for NF-κB translocation) or 3 hours (for E-selectin expression). Following activation, the cells were fixed and stained with p65 specific antibodies (Mercurio et al., Genes & Dev. 7:705, 1993; Santa Cruz) or monoclonal anti-E-selectin antibodies (R&D Systems).
To further assess the functional consequences of NF-κB inhibition, the IκB-E3 inhibitory peptide was microinjected into primary human vascular endothelial cells (HUVEC; Chen et al, J. Immunol 155:3538, 1995). These cells respond to TNFα stimulation by surface expression of NF-κB regulated adhesion proteins, such as E-selection. HUVEC cells were plated, microinjected and stimulated as described above. Three hours post stimulation the cells were fixed and stained for expression of the NF-κB dependent E-selection. 75%-85% of the HUVEC cells were intensely stained for E-selectin following TNFα stimulation in several experiments. […] In contrast, the control pp-Fos peptide had no effect on E-selectin expression, as compared to non-microinjected cells (FIGS. 4F and 4H, column 4). Microinjection of a control, S32736A substituted IκBα peptide had no effect on the rate of E-selectin expression.

[4] = system: IκB E3 in HeLa lysate; assay: Fractionation of HeLa lysate over peptide-Sepharose columns, flow-through tested in ubiquitination assay; type: binding, human; conditions: peptide coupled to NHS-Sepharose, HeLa extract, FIG. 3A
Description: pIκBα-ubiquitin conjugation and degradation requires a full complement of the ubiquitin system enzymes: E1, a specific E2 derived from the ubiquitin system fraction I, E2F1 (Alkalay et al., Proc. Natl. Acad. Sci. USA 92:10599, 1995; Chen et al., Cell 84:853, 1996) and a Fraction II-component E3. To identify the ubiquitin system component involved in the substrate recognition, HeLa lysate was fractionated over IκBα phosphopeptide columns, and the flow-through fractions were assayed for pIκBα conjugation. Peptides were coupled to NHS-Sepharose® (Pharmacia) according to the manufacturer's instructions at a concentration of 2 mg/ml. 100 μg of HeLa extract were incubated with 2.5 μl coupled resin in the presence of 0.1% NP40 and 3% ovalbumin for 1 hour at 4° C. The resin was discarded and the unbound material tested in the ubiquitination assay described above.

[5] = system: NF-κB nuclear translocation in HeLa cells; assay: Microinjection into HeLa cells, TNFα activation, p65 nuclear staining; type: cell-based, human; conditions: 5 mg/ml peptide microinjected
Description: as §1

[6] = biological target: T1, pIκBα (Homo sapiens, UniProt P25963); assay: Binding of immobilized FLAG-tagged E3 family members to IκBα/NF-κB complex (Western blot); conditions: FIG. 11A
T1 construct: The IκBα/NF-κB complex was immunopurified from HeLa cells; endogenous in cells; host or cells: HeLa cells
T1 sequence (P25963 whole entry): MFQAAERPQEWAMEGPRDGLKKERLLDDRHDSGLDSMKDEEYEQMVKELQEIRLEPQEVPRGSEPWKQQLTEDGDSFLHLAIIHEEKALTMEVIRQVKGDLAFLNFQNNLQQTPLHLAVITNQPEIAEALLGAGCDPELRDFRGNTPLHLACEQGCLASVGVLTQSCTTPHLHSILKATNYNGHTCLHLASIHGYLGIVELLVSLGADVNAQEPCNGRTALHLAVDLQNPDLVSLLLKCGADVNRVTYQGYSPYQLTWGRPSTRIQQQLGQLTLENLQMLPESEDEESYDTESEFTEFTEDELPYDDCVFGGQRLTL
T1 sequence (Q04206 whole entry partner): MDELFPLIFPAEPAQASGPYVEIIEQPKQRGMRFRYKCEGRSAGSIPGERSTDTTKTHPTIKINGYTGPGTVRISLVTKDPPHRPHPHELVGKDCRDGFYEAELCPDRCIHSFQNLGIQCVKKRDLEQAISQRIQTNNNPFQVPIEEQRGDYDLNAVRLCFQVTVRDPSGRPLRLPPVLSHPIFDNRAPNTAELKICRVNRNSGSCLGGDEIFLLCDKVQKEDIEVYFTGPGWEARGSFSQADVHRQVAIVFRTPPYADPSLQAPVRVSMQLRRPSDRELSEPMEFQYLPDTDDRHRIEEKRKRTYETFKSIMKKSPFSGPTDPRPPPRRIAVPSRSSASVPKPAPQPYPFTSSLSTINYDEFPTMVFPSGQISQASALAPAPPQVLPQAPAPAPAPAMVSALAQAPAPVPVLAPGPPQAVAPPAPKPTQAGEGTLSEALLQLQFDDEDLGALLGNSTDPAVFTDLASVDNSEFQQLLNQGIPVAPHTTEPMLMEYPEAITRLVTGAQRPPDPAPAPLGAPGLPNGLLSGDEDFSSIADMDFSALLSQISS
Description: FIGS. 11A-11C are Western blots illustrating binding and ubiquitination specificity of E3 ubiquitin ligase family members. Within these figures, mβ-TrCP indicates mouse β-TrCP, hβ-TrCP indicates human β-TrCP, Δβ-TrCP indicates human β-TrCP with a deletion of the F box region and Slimb indicates the Drosophila Slimb protein. FIG. 11A illustrates selective binding to pIκBα. Proteins were immunoprecipitated through a FLAG epitope from transfected 293T cells, incubated with immunopurified IκBα/NF-κB complex, which had been treated (−/+IKK) as indicated and the bound material was analyzed by Western blotting with the indicated antibodies. […] FIG. 11C illustrates in vitro ubiquitination of pIκBα by the E3 family member proteins. Immunopurified FLAG-tagged proteins were incubated with ^35 S-labeled IκBα/NF-κB complexes, treated (−/+IKK) as indicated and subject to ubiquitination in the presence of ATPγS, ubiquitin. E1 and UBC5C. The IκBα substrate (composed of full-length and two degradation products), pIκBα-polyubiquitin conjugates and molecular size markers are indicated on the left.
The ability of these proteins to bind pIκBα specifically and assist in its ubiquitination was examined in a cell-free system. The IκBα/NF-κB complex was immunopurified from HeLa cells and the immune complex was either phosphorylated with IKK2-EE or mock-phosphorylated as described above. It was then incubated with the following immobilized FLAG-tagged E3 family members immunoprecipitated from transfected 293 cells: mouse β-TrCP (mβ-TrCP), human β-TrCP (hβ-TrCP), human β-TrCP with a deletion of the F box region residues 122-168 (Δβ-TrCP) and the Drosophila Slimb protein. The bound material was analyzed by Western blotting with anti-IκBα and anti-FLAG antibodies. […] Furthermore, β-TrCP binding was abrogated by a peptide representing the pIκBα recognition motif (pp10; DRHDS(PO3)GLDS(PO3)M (SEQ ID NO:29); see FIG. 11B, lane 3), but not by the control peptide (lane 4), specifying the site of pIκBα recognition of the conserved DS(PO3)GLDS(PO3) (SEQ ID NO:30) sequence.

Row | Molecule | effect on the ubiquitination of pIκB [1] | effect on specific pIκBα degradation [2] | effect on E-selectin expression [3] | IκBα conjugation capacity of column flow-through fraction [4] | other results
1 | ppFos: c-Fos phosphopeptide, SEQ ID NO:10, control (IGRRGKVEQLSPEEEEKRR; not fully specified (residue 11); also: phosphorylated, sites not given here; listed as Homo sapiens) | no detectable effect | no effect | no effect | retained full IκBα conjugation capacity | effect on the rate of NF-κB induced nuclear translocation ([5]; compared to non-microinjected cells): no effect
2 | p21: non-phosphorylated IκBα peptide, SEQ ID NO:9 (CKKERLLDDRHDSGLDSMKDEE; listed as Homo sapiens) | no detectable effect | no effect | – | – | –
3 | p21 S/A: serine 32, 36 to alanine substituted IκBα peptide, SEQ ID NO:11 (CKKERLLDDRHDAGLDAMKDEE; listed as Homo sapiens) | no detectable effect | – | no effect | retained full IκBα conjugation capacity | –
4 | pp21: doubly phosphorylated IκBα peptide, SEQ ID NO:9; 22 amino acid pIκBα peptide (CKKERLLDDRHD[pS]GLD[pS]MKDEE; listed as Homo sapiens) | – | – | – | – | microinjected cells with inhibition of E-selectin expression [3]: 70%-80%; microinjected cells in which TNFα-stimulated NF-κB activation was abolished ([5]; TNFα 200 units/mL 20 minutes, several experiments): 50%-70%
5 | B1 | – | – | – | – | relative binding of IκBα / pIκBα ([6]; comparison between family members): far better than the highly homologous Drosophila protein; binding to IKK-phosphorylated versus mock-phosphorylated IκBα ([6]; FLAG-tagged protein from transfected 293 cells): exclusively bound IKK-phosphorylated, but not mock-phosphorylated, IκBα
